Experimental data: US12152038B2, “Vasopressin receptor antagonists and products and methods related thereto” (Neumora Therapeutics, Inc., priority 2017, dated 2024)

The compounds below were run against T1, human Arginine Vasopressin Receptor 1b (AVPR1b) (Homo sapiens, UniProt P47901) (assay: Vasopressin V1b receptor antagonist assay (FLIPR calcium, CHO-AVPR1b cells)).
T1 construct: expressed in transfected cells; host or cells: CHO (CHO-AVPR1b, kept under G418 selection)
T1 sequence (P47901 1-424): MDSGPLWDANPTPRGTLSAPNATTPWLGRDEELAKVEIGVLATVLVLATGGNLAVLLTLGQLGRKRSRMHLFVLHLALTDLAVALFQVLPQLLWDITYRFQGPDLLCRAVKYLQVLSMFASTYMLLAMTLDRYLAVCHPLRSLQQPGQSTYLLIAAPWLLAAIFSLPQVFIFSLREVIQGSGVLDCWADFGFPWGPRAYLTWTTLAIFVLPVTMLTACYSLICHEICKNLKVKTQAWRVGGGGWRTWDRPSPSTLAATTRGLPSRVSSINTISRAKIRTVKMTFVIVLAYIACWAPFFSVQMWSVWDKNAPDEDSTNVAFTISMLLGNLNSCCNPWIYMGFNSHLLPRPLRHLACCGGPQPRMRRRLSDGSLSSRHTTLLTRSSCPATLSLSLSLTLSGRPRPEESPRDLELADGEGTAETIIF
Assay type: cell-based
Method: The purpose of the assay was to determine the inhibitory effect of synthesized compounds on the Vasopressin V1b receptor. The assay was performed in Chinese Hamster Ovary (CHO) cells expressing the human Arginine Vasopressin Receptor 1b (AVPR1b). Arginine Vasopressin (AVP) evokes an increase in intracellular calcium in CHO-AVPR1b cells which is measured in a fluorescence assay on the FLIPR^TETRA using calcium sensitive dyes. Test compounds were assessed for their ability to affect the magnitude of the response to AVP, with antagonists showing a concentration-dependent reduction in the AVP-mediated fluorescence.
CHO-AVPR1b cells were maintained in routine culture in T175 Flasks at 37° C., 5% CO2. The growth medium consisted of Ham's F12 media supplemented with 10% v/v fetal bovine serum, 1× non-essential amino acids, and 0.4 mg/ml Geneticin G418.
Cells were harvested from T175 flasks when they were 80-90% confluent by first washing the cell monolayer with PBS and then dissociated using trypsin 0.05%/EDTA (3 mL for a T175 Flask). The flasks were incubated at room temperature until the cells detached. To the cell suspension, 10 ml of growth media was added and the cell density determined using the Vi-Cell automated cell counter. The cells were spun at 1000 rpm for 3 minutes, then the supernatant was carefully removed and discarded. The cell pellet was re-suspended at 6.0e^5 cells/ml in growth media. 25 μL of cells in growth media was dispensed into each well (15,000 cells per well) of a poly-D-lysine coated black, clear bottomed, 384-well plate. The plates were incubated at 37° C., 5% CO2 overnight.
At the start of each assay day, the potency of AVP was assessed and an EC80 concentration determined for subsequent compound profiling. Assays were performed using a two-step addition protocol on the FLIPR^TETRA; first addition of 5 μl of control or test compound at 10× final in assay buffer with 15 min incubation at 37° C., 5% CO2 followed by 10 μl of AVP at 6× final concentration in assay buffer. Changes in fluorescence were monitored for 3 min after both additions on the FLIPR^TETRA using 470-495 nm excitation and 515-575 nm emission wavelengths. The assay buffer consisted of HBSS (+Ca/+Mg) supplemented with 20 mM HEPES, and for the preparation of the AVP agonist only, 0.1% w/v bovine serum albumin. The assay was initiated by the removal of growth media from the cells and replacement with 45 μl of Calcium-6 dye (Molecular Devices) prepared at 1× in assay buffer. Cells were loaded with dye for 60-90 min at 37° C., 5% CO2 before initiation of the FLIPR^TETRA protocol. […] For compound profiling, test compounds were first serially diluted in DMSO (10-point curve, 1:3 dilutions) then diluted 33.3-fold in assay buffer prior to addition to the dye loaded cells on the FLIPR^TETRA. At the end of the incubation period 10 μl of AVP in assay buffer containing 0.1% BSA was added at the previously determined EC80 concentration.
In-plate controls for the assay included a Nelivaptan concentration-response curve as the reference V1b antagonist and an AVP concentration-response curve to confirm the reproducibility of the EC80 used for the compound challenge.
`CC1COc2cc(Cl)ccc2N1C(=O)N1CC2(C1)CN(c1cccnn1)C2` (centres unmarked) [9-1, (7-chloro-3-methyl-2,3-dihydro-4H-benzo[b][1,4]oxazin-4-yl)(6-(pyridazin-3-yl)-2,6-diazaspiro[3.3]heptan-2-yl)methanone] showed an IC50 of no less than 1000 nM.
With `COc1ccc2c(c1)OCCN2C(=O)N1CC2(C1)CN(c1ccc(F)cn1)C2` [9-2] the IC50 was no less than 1000 nM.
In the case of `CC1CN(C(=O)N2CC3(C2)CN(c2ccc(F)cn2)C3)c2ccc(Cl)cc2O1` (centres unmarked) [9-3], the IC50 is reported as no less than 1000 nM.
For `O=C(N1CC2(C1)CN(c1ccc(F)cn1)C2)N1CCOc2cc(F)c(F)cc21` [9-6], the IC50 was no less than 1000 nM.
`O=C(N1CC2(C1)CN(c1ccc(F)cn1)C2)N1CCOc2cc(Cl)ccc21` [9-7] showed an IC50 of no less than 1000 nM.
`CCC1COc2cc(Cl)ccc2N1C(=O)N1CC2(C1)CN(c1ccccn1)C2` (centres unmarked) [11-1, (7-chloro-3-ethyl-2,3-dihydro-4H-benzo[b][1,4]oxazin-4-yl)(6-(pyridin-2-yl)-2,6-diazaspiro[3.3]heptan-2-yl)methanone] showed an IC50 of no less than 1000 nM.
For `CC1COc2cc(F)ccc2N1C(=O)N1CC2(C1)CN(c1ccc(F)cn1)C2` (centres unmarked) [12-1, (7-fluoro-3-methyl-2,3-dihydro-4H-benzo[b][1,4]oxazin-4-yl)(6-(5-fluoropyridin-2-yl)-2,6-diazaspiro[3.3]heptan-2-yl)methanone], the IC50 was no less than 1000 nM.
With `O=C(N1CC2(C1)CN(c1ccc(F)cn1)C2)N1CCC(O)c2cc(Cl)ccc21` (centres unmarked) [13-1, (6-chloro-4-hydroxy-3,4-dihydroquinolin-1(2H)-yl)(6-(5-fluoropyridin-2-yl)-2,6-diazaspiro[3.3]heptan-2-yl)methanone] the IC50 was no less than 1000 nM.
For `O=C(N1CC2(C1)CN(c1cnccn1)C2)N1CCC(O)c2cc(Cl)ccc21` (centres unmarked) [13-3], the IC50 was no less than 1000 nM.
In the case of `O=C(N1CC2(C1)CN(c1ccc(F)cn1)C2)N1CCC(F)c2cc(Cl)ccc21` (centres unmarked) [14-1, (6-chloro-4-fluoro-3,4-dihydroquinolin-1(2H)-yl)(6-(5-fluoropyridin-2-yl)-2,6-diazaspiro[3.3]heptan-2-yl)methanone], the IC50 is reported as no less than 1000 nM.
In the case of `O=C(N1CC2(C1)CN(c1ccc(F)cn1)C2)N1CCC(F)(F)c2cc(Cl)ccc21` [17-1, (6-chloro-4,4-difluoro-3,4-dihydroquinolin-1(2H)-yl)(6-(5-fluoropyridin-2-yl)-2,6-diazaspiro[3.3]heptan-2-yl)methanone], the IC50 is reported as no less than 1000 nM.
For `CC1COc2cc(F)ccc2N1C(=O)N1CC2(C1)CN(c1ncccn1)C2` (centres unmarked) [18-1, (7-fluoro-3-methyl-2,3-dihydro-4H-benzo[b][1,4]oxazin-4-yl)(6-(pyrimidin-2-yl)-2,6-diazaspiro[3.3]heptan-2-yl)methanone], the IC50 was no less than 1000 nM.
Work on `CC1COc2cc(Cl)ccc2N1C(=O)N1CC2(C1)CN(c1noc3cccnc13)C2` (centres unmarked) [18-3] yielded an IC50 of no less than 1000 nM.
`CC1COc2cc(F)c(F)cc2N1C(=O)N1CC2(C1)CN(c1ncccn1)C2` (centres unmarked) [19-1, (6,7-difluoro-3-methyl-2,3-dihydro-4H-benzo[b][1,4]oxazin-4-yl)(6-(pyrimidin-2-yl)-2,6-diazaspiro[3.3]heptan-2-yl)methanone] gave an IC50 of no less than 1000 nM.
For `CC1COc2cc(Cl)c(F)cc2N1C(=O)N1CC2(C1)CN(c1ncccn1)C2` (centres unmarked) [19-2], the IC50 was no less than 1000 nM.
With `CC1COc2cc(F)c(F)cc2N1C(=O)N1CC2(C1)CN(c1cccnn1)C2` (centres unmarked) [19-3] the IC50 was no less than 1000 nM.
`CC1COc2cc(Cl)c(F)cc2N1C(=O)N1CC2(C1)CN(c1cccnn1)C2` (centres unmarked) [19-4] showed an IC50 of no less than 1000 nM.
`CC1COc2cc(F)c(F)cc2N1C(=O)N1CC2(C1)CN(c1ccc(F)cn1)C2` (centres unmarked) [19-5] was tested, and the IC50 was no less than 1000 nM.
`CC1COc2cc(Cl)c(F)cc2N1C(=O)N1CC2(C1)CN(c1cccnc1)C2` (centres unmarked) [19-6] showed an IC50 of no less than 1000 nM.
For `CC1COc2cc(Cl)ccc2N1C(=O)N1CC2(C1)CN(c1cccnc1)C2` (centres unmarked) [20-1, (7-chloro-3-methyl-2,3-dihydro-4H-benzo[b][1,4]oxazin-4-yl)(6-(pyridin-3-yl)-2,6-diazaspiro[3.3]heptan-2-yl)methanone], the IC50 was no less than 1000 nM.
`Cc1cncc(N2CC3(CN(C(=O)N4c5ccc(F)cc5OCC4C)C3)C2)n1` (centres unmarked) [20-2] showed an IC50 of no less than 1000 nM.
With `CC1COc2cc(Cl)ccc2N1C(=O)N1CC2(C1)CN(c1cc(C#N)ccn1)C2` (centres unmarked) [20-6] the IC50 was no less than 1000 nM.
`Cc1nc(N2CC3(CN(C(=O)N4c5ccc(Cl)cc5OCC4C)C3)C2)ncc1F` (centres unmarked) [20-7] gave an IC50 of no less than 1000 nM.
Compound `COc1ccnc(N2CC3(CN(C(=O)N4c5ccc(Cl)cc5OCC4C)C3)C2)c1` (centres unmarked) [20-8] has an IC50 of no less than 1000 nM.
Work on `COc1ccnc(N2CC3(CN(C(=O)N4c5ccc(Cl)cc5OCC4C)C3)C2)n1` (centres unmarked) [20-9] yielded an IC50 of no less than 1000 nM.
Work on `Cc1nccnc1N1CC2(CN(C(=O)N3c4ccc(Cl)cc4OCC3C)C2)C1` (centres unmarked) [20-10] yielded an IC50 of no less than 1000 nM.
For `Cc1ccnc(N2CC3(CN(C(=O)N4c5ccc(Cl)cc5OCC4C)C3)C2)c1` (centres unmarked) [20-11], the IC50 was no less than 1000 nM.
Compound `Cc1ccnc(N2CC3(CN(C(=O)N4c5ccc(Cl)cc5OCC4C)C3)C2)n1` (centres unmarked) [20-12] has an IC50 of no less than 1000 nM.
`Cc1cnc(N2CC3(CN(C(=O)N4c5ccc(Cl)cc5OCC4C)C3)C2)nc1` (centres unmarked) [20-13] was tested, and the IC50 was no less than 1000 nM.
